SMILES strings stand for the structures. Read-outs that look alike come from different tables or passages of the source.

The record followed here is patent US10723711B2, “1,1,1-trifluoro-3-hydroxypropan-2-yl carbamate derivatives and 1,1,1-trifluoro-4-hydroxybutan-2-yl carbamate derivatives as MAGL inhibitors” (PFIZER INC., priority 2015, dated 2020).

Common to all, as to format: biochemical
Assay [1] deals with T1, human recombinant Monoacylglycerol Lipase (Homo sapiens, UniProt Q99685).
T1 sequence (Q99685 1-303): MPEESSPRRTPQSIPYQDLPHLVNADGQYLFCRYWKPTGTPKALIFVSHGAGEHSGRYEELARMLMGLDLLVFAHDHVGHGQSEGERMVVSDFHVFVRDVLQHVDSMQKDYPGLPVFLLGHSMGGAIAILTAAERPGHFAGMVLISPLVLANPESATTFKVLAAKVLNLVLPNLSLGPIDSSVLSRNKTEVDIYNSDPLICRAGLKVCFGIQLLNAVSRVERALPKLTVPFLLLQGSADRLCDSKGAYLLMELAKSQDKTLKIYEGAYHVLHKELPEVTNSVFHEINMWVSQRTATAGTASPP
In words: MAGL inactivation, enzyme progress curves, kinact/KI. The note with it: from enzyme progress curves, T = 0 min protocol; geometric mean of 2-4 determinations unless otherwise indicated. An outline of the steps:
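Human recombinant MAGL ([…]) with compound, 7-HCA substrate (final 5 μM) added immediately (T=0 min), in pH 7.4 HEPES buffer with 0.1% Triton X-100 and 25% glycerin. Fluorescence (Ex/Em 340/465) was read every minute over 60 min, giving progress curves at decreasing compound concentrations (final 3 μM to 0.03 nM).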

Assay [2] deals with T1, human recombinant Monoacylglycerol Lipase. In words: MAGL inhibition enzymatic assay, fluorogenic substrate 7-HCA, IC50 at T=0 min or after 30 minute incubation (T=30 min). Conditions: geometric mean of 2-4 determinations unless otherwise indicated. The procedure: An equal volume of 7-HCA in assay buffer with 10% DMSO was added either immediately (T=0 min) or after a 30 minute incubation (T=30 min) to initiate the reaction. […] After these dilutions, the final concentration of the test compound ranged from 3 μM to 0.03 nM. […] IC50 values were generated based on a four parameter fit model using ABASE software from IDBS.

The next assay concerns the target T2, human recombinant FAAH (Homo sapiens, UniProt O00519).
T2 construct: purchased Cayman 10010183
T2 sequence (O00519 1-579): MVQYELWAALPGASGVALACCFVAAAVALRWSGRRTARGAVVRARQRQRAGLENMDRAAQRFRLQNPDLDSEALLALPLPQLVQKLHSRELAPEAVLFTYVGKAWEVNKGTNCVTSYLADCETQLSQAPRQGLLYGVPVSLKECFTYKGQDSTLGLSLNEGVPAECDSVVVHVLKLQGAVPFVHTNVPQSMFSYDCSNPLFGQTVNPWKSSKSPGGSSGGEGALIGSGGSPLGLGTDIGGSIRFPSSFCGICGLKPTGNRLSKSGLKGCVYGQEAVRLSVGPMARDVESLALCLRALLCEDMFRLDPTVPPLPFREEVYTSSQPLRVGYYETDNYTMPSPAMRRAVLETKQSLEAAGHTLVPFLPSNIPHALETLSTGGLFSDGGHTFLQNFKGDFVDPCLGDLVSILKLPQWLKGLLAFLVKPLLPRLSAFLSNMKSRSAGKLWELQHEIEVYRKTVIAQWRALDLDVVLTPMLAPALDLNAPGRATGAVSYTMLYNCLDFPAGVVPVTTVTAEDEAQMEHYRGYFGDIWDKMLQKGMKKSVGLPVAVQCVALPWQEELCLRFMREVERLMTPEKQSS
In words: FAAH inhibition enzymatic assay, fluorescent substrate Arachidonoyl-AMC, 30 minute incubation. The note with it: T = 30 min (30 minute incubation); geometric mean of 2-4 determinations unless otherwise indicated. The procedure:
Assessment of FAAH inhibition utilizes human recombinant FAAH and the fluorescent substrate, Arachidonoyl-AMC. 400 nL of a test compound at decreasing concentrations was spotted into a 384-well back plate (PerkinElmer, 6007279) using a Labcyte Echo, followed by addition of 10 μl of FAAH enzyme (Cayman 10010183) in assay buffer (50 mM Tris, pH 9.0, 1 mM EDTA). After a 30 minute incubation at room temperature, 10 μL of Arachidonyl-AMCA was added in assay buffer with 16% DMSO. Final concentration of FAAH enzyme was 0.0125 Units and AAMCA substrate was used at the Km of 5 μM. […] The reaction was allowed to progress for 60 minutes, after which the plate was read on a Molecular Devices FlexStation reader at an Ex/Em of 355/460. Percent inhibitions were calculated based on controls wells containing either no compound (0% inhibition) or a control compound (e.g., an FAAH inhibitor whose activity is known or was previously reported in the literature, such as one with about 100% inhibition). IC50 values were generated based on a four parameter fit model using ABASE software from IDBS.

[3] abbreviates: T = 0 min (substrate added immediately), read-out: MAGL (T = 0 min) IC50.
[4] abbreviates: T = 30 min (30 minute incubation), read-out: MAGL (T = 30 min) IC50.

Consider `CN(C1COC2(CCN(C(=O)O[C@H](CO)C(F)(F)F)CC2)C1)S(=O)(=O)c1cncnc1` (mixture of isomers) [Example 115], for which, in assay [1], the “MAGL kinact/KI” value is recorded as 2917 1/s per M. Further, the IC50 (as a rule, the midpoint of a concentration-inhibition curve) in assay [2] (setting [3]) was 341 nM; in assay [2] (setting [4]), 27 nM; on human recombinant FAAH it was greater than 30000 nM.

Turning to `O=C(O[C@H](CO)C(F)(F)F)N1CCC(Oc2ccc(C3CC3)cn2)CC1` [Example 10, (2R)-1,1,1-Trifluoro-3-hydroxypropan-2-yl 4-[(5-cyclopropylpyridin-2-yl)oxy]piperidine-1-carboxylate], in assay [1], the “MAGL kinact/KI” value was 5205 1/s per M. Besides, the IC50 was 77 nM in assay [2] (setting [3]), 7 nM in assay [2] (setting [4]) and greater than 30000 nM at human recombinant FAAH.

For `O=C(O[C@H](CO)C(F)(F)F)N1CCC(c2ccn(-c3ccc(F)cc3)n2)CC1` [Example 2, (2R)-1,1,1-Trifluoro-3-hydroxypropan-2-yl 4-[1-(4-fluorophenyl)-1H-pyrazol-3-yl]piperidine-1-carboxylate], the “MAGL kinact/KI” value in assay [1] is 6109 1/s per M. The IC50 in assay [2] (setting [3]) turned out to be 56 nM; in assay [2] (setting [4]) it was 8 nM; at human recombinant FAAH, 1140 nM.

With `O=C(O[C@H](CO)C(F)(F)F)N1CCC2(CC1)CC(N1Cc3ccccc3S1(=O)=O)CO2` (mixture of isomers) [Example 101, (2R)-1,1,1-trifluoro-3-hydroxypropan-2-yl 3-(1,1-dioxido-1,2-benzothiazol-2(3H)-yl)-1-oxa-8-azaspiro[4.5]decane-8-carboxylate], the “MAGL kinact/KI” value in assay [1] was 2454 1/s per M. In addition, the figures for the half-maximal inhibitory concentration (IC50) (in assay [2] (setting [3]); in assay [2] (setting [4]); on human recombinant FAAH) were 180 nM, 21 nM and 6540 nM, respectively.

Turning to `O=C(O[C@H](CO)C(F)(F)F)N1CCC2(CC1)CC(Oc1ccccn1)CO2` (single isomer, unassigned) [Example 130], in assay [1], the “MAGL kinact/KI” value is listed as 12483 1/s per M. For the same molecule, the IC50 in assay [2] (setting [3]) was 76 nM; in assay [2] (setting [4]), 6 nM; on human recombinant FAAH, 25700 nM.

Consider `CN(C1COC2(CCN(C(=O)O[C@H](CO)C(F)(F)F)CC2)C1)S(=O)(=O)c1cccc(F)c1` (single isomer, unassigned) [Example 109], for which, in assay [1], the “MAGL kinact/KI” value is 34918 1/s per M. The IC50 in assay [2] (setting [3]) was 21 nM; in assay [2] (setting [4]) it was 2 nM; at human recombinant FAAH, greater than 30000 nM.

For `CN(C(=O)c1ccccc1)C1COC2(CCN(C(=O)O[C@H](CO)C(F)(F)F)CC2)C1` (single isomer, unassigned) [Example 99], the “MAGL kinact/KI” value in assay [1] was 16883 1/s per M. The values for the IC50 (in assay [2] (setting [3]); in assay [2] (setting [4]); on human recombinant FAAH) were 107 nM, 11 nM and greater than 30000 nM, respectively.

As to `CN(C1COC2(CCN(C(=O)O[C@H](CO)C(F)(F)F)CC2)C1)S(=O)(=O)C1CCCC1` (mixture of isomers) [Example 112], the “MAGL kinact/KI” value in assay [1] is 14232 1/s per M. Further, the IC50 in assay [2] (setting [3]) is 64 nM; in assay [2] (setting [4]), 7 nM; at human recombinant FAAH, greater than 30000 nM.

With `CN([C@H]1COC2(CCN(C(=O)O[C@H](CO)C(F)(F)F)CC2)C1)S(=O)(=O)c1cnn(C)c1` [Example 138], the “MAGL kinact/KI” value in assay [1] is 2154 1/s per M. Besides, the IC50 in assay [2] (setting [3]) worked out at 185 nM; in assay [2] (setting [4]), 15 nM; at human recombinant FAAH, 16300 nM.

Turning to `O=C(O[C@H](CO)C(F)(F)F)N1CCC2(CC1)CN(S(=O)(=O)c1ccccc1)CCO2` [Example 7, (2R)-1,1,1-Trifluoro-3-hydroxypropan-2-yl 4-(phenylsulfonyl)-1-oxa-4,9-diazaspiro[5.5]undecane-9-carboxylate], in assay [1], the “MAGL kinact/KI” value is reported as 29124 1/s per M. The IC50 in assay [2] (setting [3]) was 29 nM; in assay [2] (setting [4]), 3 nM; on human recombinant FAAH, greater than 24100 nM.

Turning to `CN([C@H]1COC2(CCN(C(=O)O[C@H](CO)C(F)(F)F)CC2)C1)S(=O)(=O)c1nccs1` [Example 136], in assay [1], the “MAGL kinact/KI” value is on record as 15516 1/s per M. Also, the IC50 is 52 nM in assay [2] (setting [3]), 5 nM in assay [2] (setting [4]) and greater than 30000 nM on human recombinant FAAH.

For the molecule `O=C(O[C@H](CO)C(F)(F)F)N1CCC2(CC1)CCN(S(=O)(=O)c1ccccc1)C2` [Example 105, (2R)-1,1,1-Trifluoro-3-hydroxypropan-2-yl 2-(phenylsulfonyl)-2,8-diazaspiro[4.5]decane-8-carboxylate], the “MAGL kinact/KI” value in assay [1] is reported as 59993 1/s per M. In addition, the results for the IC50 (in assay [2] (setting [3]); in assay [2] (setting [4]); at human recombinant FAAH) were 22 nM, 2 nM and 9760 nM, respectively.

In the case of `O=C(O)C(F)(F)F.O=C(O[C@H](CO)C(F)(F)F)N1CCC(Oc2nccc3ccccc23)CC1` [Example 26, (2R)-1,1,1-Trifluoro-3-hydroxypropan-2-yl 4-(isoquinolin-1-yloxy)piperidine-1-carboxylate, trifluoroacetic acid salt], the “MAGL kinact/KI” value in assay [1] is on record as 16949 1/s per M. Further, the IC50 in assay [2] (setting [3]) was found to be 31 nM; in assay [2] (setting [4]), 2 nM; on human recombinant FAAH, 7730 nM.

For the molecule `N#Cc1cccc(C2COC3(CCN(C(=O)O[C@H](CO)C(F)(F)F)CC3)C2)c1` (mixture of isomers) [Example 147], in assay [1], the “MAGL kinact/KI” value is given as 5973 1/s per M. Also, the IC50 is 60 nM in assay [2] (setting [3]), 6 nM in assay [2] (setting [4]) and greater than 26400 nM on human recombinant FAAH.

Regarding `CN(C1COC2(CCN(C(=O)O[C@H](CO)C(F)(F)F)CC2)C1)S(=O)(=O)c1ccc(F)cc1` (single isomer, unassigned) [Example 110], in assay [1], the “MAGL kinact/KI” value is reported as 8796 1/s per M. Further, the IC50 stood at 70 nM in assay [2] (setting [3]), 6 nM in assay [2] (setting [4]) and 7090 nM on human recombinant FAAH.

In the case of `CN([C@H]1COC2(CCN(C(=O)O[C@H](CO)C(F)(F)F)CC2)C1)S(=O)(=O)C1CC1` [Example 93, (2R)-1,1,1-Trifluoro-3-hydroxypropan-2-yl (3R)-3-[(cyclopropylsulfonyl)(methyl)amino]-1-oxa-8-azaspiro[4.5]decane-8-carboxylate], in assay [1], the “MAGL kinact/KI” value was 3282 1/s per M. Further, the IC50 in assay [2] (setting [3]) is 318 nM; in assay [2] (setting [4]), 29 nM; on human recombinant FAAH, greater than 30000 nM.

Turning to `O=C(OC(C(F)(F)F)C(F)(F)CO)N1C[C@@H]2[C@H](C1)[C@H]2c1ccn(-c2ccc(F)cc2)n1` (stereo partly shown) [Example 39], the “MAGL kinact/KI” value in assay [1] is 9893 1/s per M. Besides, the IC50 was 34 nM in assay [2] (setting [3]), 2 nM in assay [2] (setting [4]) and 6010 nM at human recombinant FAAH.

Take `CN([C@@H]1COC2(CCN(C(=O)O[C@H](CO)C(F)(F)F)CC2)C1)S(=O)(=O)C1CC1` [Example 94, (2R)-1,1,1-Trifluoro-3-hydroxypropan-2-yl (3S)-3-[(cyclopropylsulfonyl)(methyl)amino]-1-oxa-8-azaspiro[4.5]decane-8-carboxylate]: the “MAGL kinact/KI” value in assay [1] is reported as 3764 1/s per M. The IC50 was 316 nM in assay [2] (setting [3]), 27 nM in assay [2] (setting [4]) and greater than 30000 nM at human recombinant FAAH.

Take `O=C(O[C@H](CO)C(F)(F)F)N1CCC2(CC1)CC(c1ccc(F)nc1)CO2` (mixture of isomers) [Example 120]: the “MAGL kinact/KI” value in assay [1] is given as 1516 1/s per M. Besides, the IC50 in assay [2] (setting [3]) is 166 nM; in assay [2] (setting [4]), 21 nM; on human recombinant FAAH, greater than 30000 nM.
